From patent US11479551B2, “MTA-cooperative PRMT5 inhibitors” (Mirati Therapeutics, Inc., priority 2019, dated 2022)

Key:
[1] = system: HCT116 homozygous MTAP knockout cells; assay: Proliferation assay (CellTiter-Glo, 10 days of treatment), HCT116 MTAP knockout; type: cell-based; details: Homo sapiens, HCT-116, 240 h, read-out: Proliferation HCT116MTAP_KO IC50
Description: (§1) 1. HCT116 MTAP Knockout Model
(§2) HCT116 cells were genetically engineered to knock out the function of both MTAP alleles using a CRISPR/Cas9 system and an sgRNA targeting the MTAP gene. Following Cas9/MTAP sgRNA transduction, clones were screened to confirm that each allele of the MTAP gene had been inactivated (i.e., homozygous MTAP knock out) creating an MTAP-deficient cell.
(§3) Control samples were analyzed in parallel.
Briefly, on Day 0, 250 HCT116 parental or HCT116 homozygous MTAP knockout cell were seeded in 96 well plates in McCoy's 5A supplemented with 10% fetal bovine serum and pen/strep and the cells were incubated overnight at 37° C. plus 5% CO2.
The following day, cells were treated with DMSO vehicle control or a dose response of PRMT5 inhibitors and incubated at 37 C plus 5% CO2 for five days. On Day 6, the cells were trypsinized and split 1:10 into new 96-well plates with fresh medium containing the same concentration of PRMT5 inhibitor and incubated for an additional 5 days at 37° C. plus 5% CO^2.
On Day 11, the viability of the cells was measured using a CTG assay kit (CellTiter-Glo; Promega cat.no G7573) in accordance with the manufacturer's instructions. The IC50 values for each compound after 10 days of treatment were calculated using GraphPad PRISM software.

[2] = system: PRMT5-dependent Symmetric Di-methyl Arginine signal in HCT116 homozygous MTAP knockout cells; assay: SYM11 In-Cell Western, HCT116 MTAP knockout; type: cell-based; details: Homo sapiens, HCT-116, 96 h, HCT116 homozygous MTAP knockout cells, 4 days of treatment, SYM11/DRAQ5 ratio; read-out: In-cell-Western (SYM11) HCT116 MTAP_KO IC50
Description: as §1, §2, §3
Briefly, on Day 0, 2,000 HCT116 parental or HCT116 homozygous MTAP knockout cells were seeded in 96 well plates in McCoy's 5A supplemented with 10% fetal bovine serum and pen/strep and the cells were incubated overnight at 37° C. plus 5% CO2. The following day, cells were treated with DMSO vehicle control or a dose response of PRMT5 inhibitors, and incubated at 37° C. plus 5% CO^2 for four days.
After 4 days of treatment, the cells were fixed by adding 50 μl of 4% paraformaldehyde solution to each well and the cells were incubated for 20 min at room temperature. The paraformaldehyde solution was removed, 150 μl of ice-cold methanol was added and the plate was placed −20° C. for 10 minutes. The methanol was removed, 150 μl of Odyssey Blocking buffer+0.05% Tween20 was added and the plate was incubated at room temperature with shaking for one hour.
The primary SYM11 antibody solution was removed by aspiration and the wells were washed three consecutive times with phosphate buffered saline containing 0.1% Tween-20 (PBST).
The secondary antibody solution was removed by aspiration and the wells were washed three consecutive times with PB ST.
The SYM11 signal and the DRAQ5 signal were quantified using a Li-Cor Odyssey machine reading at […], respectively. The SYM11/DRAQ5 ratio was used to calculate the inhibition of Symmetric Dimethyl Arginine as percent of DMSO control.

IC50 [1] [µM]	IC50 [2] [µM]	SMILES
> 10	> 1	N#CCc1ccccc1Oc1cncc(-c2ccc3c(=O)[nH]nc(CN)c3c2)c1 [Example 4-235, 2-(2-((5-(4-(aminomethyl)-1-oxo-1,2-dihydrophthalazin-6-yl)pyridin-3-yl)oxy)phenyl)acetonitrile]
> 1	> 1	Cn1ncc(-c2ccc3c(=O)[nH]nc(CN)c3c2)c1-c1cnn(Cc2cccn(C)c2=O)c1Cl [Example 4-236, 4-(aminomethyl)-6-(5′-chloro-2-methyl-1′-((1-methyl-2-oxo-1,2-dihydropyridin-3-yl)methyl)-1′H,2H-[3,4′-bipyrazol]-4-yl)phthalazin-1(2H)-one]
1.04	0.136	Cn1ncc(-c2ccc3c(=O)[nH]nc(CN)c3c2)c1-c1ccc2ncsc2c1C#N [Example 4-237, 6-(4-(4-(aminomethyl)-1-oxo-1,2-dihydrophthalazin-6-yl)-1-methyl-1H-pyrazol-5-yl)benzo[d]thiazole-7-carbonitrile]
> 10	> 1	Cn1ncc(-c2ccc3c(=O)[nH]nc(CN)c3c2)c1-c1cccn2cncc12 [Example 4-239, 4-(aminomethyl)-6-(5-(imidazo[1,5-a]pyridin-8-yl)-1-methyl-1H-pyrazol-4-yl)phthalazin-1(2H)-one]
3.56	> 1	Cn1ncc(-c2ccc3c(=O)[nH]nc(CN)c3c2)c1-c1cn2ccccc2c1C#N [Example 4-240, 2-(4-(4-(aminomethyl)-1-oxo-1,2-dihydrophthalazin-6-yl)-1-methyl-1H-pyrazol-5-yl)indolizine-1-cathonitrile]
0.285	0.051	Cn1ncc(-c2ccc3c(=O)[nH]nc(CN)c3c2)c1-c1cc(Cl)cc(OC(F)F)c1C#N [Example 4-243, 2-(4-(4-(aminomethyl)-1-oxo-1,2-dihydrophthalazin-6-yl)-1-methyl-1H-pyrazol-5-yl)-4-chloro-6-(difluoromethoxy)benzonitrile]
0.327	0.042	Cn1ncc(-c2ccc3c(=O)[nH]nc(CN)c3c2)c1-c1sc2ncccc2c1C#N [Example 4-244, 2-(4-(4-(aminomethyl)-1-oxo-1,2-dihydrophthalazin-6-yl)-1-methyl-1H-pyrazol-5-yl)thieno[2,3-b]pyridine-3-carbonitrile]
0.008	0.007	Cc1c(F)c(-c2c(-c3ccc4c(=O)[nH]nc(CN)c4c3)cnn2C)c(C#N)c2ccccc12 [Example 4-245, 2-(4-(4-(aminomethyl)-1-oxo-1,2-dihydrophthalazin-6-yl)-1-methyl-1H-pyrazol-5-yl)-3-fluoro-4-methyl-1-naphthonitrile]
0.072	0.05	Cn1ncc(-c2ccc3c(=O)[nH]nc(CN)c3c2)c1-c1c(C(F)F)cc2ccccc2c1C#N [Example 4-246, 2-(4-(4-(aminomethyl)-1-oxo-1,2-dihydrophthalazin-6-yl)-1-methyl-1H-pyrazol-5-yl)-3-(difluoromethyl)-1-naphthonitrile]
1.81	> 1	Cn1nc(F)c(-c2ccc3c(=O)[nH]nc(CN)c3c2)c1-c1ccc2ccccc2c1C#N [Example 4-247, 2-(4-(4-(aminomethyl)-1-oxo-1,2-dihydrophthalazin-6-yl)-3-fluoro-1-methyl-1H-pyrazol-5-yl)-1-naphthonitrile]
1.16	> 1	Cn1cc2c(C#N)c(-c3c(-c4ccc5c(=O)[nH]nc(CN)c5c4)cnn3C)ccc2n1 [Example 4-248, 5-(4-(4-(aminomethyl)-1-oxo-1,2-dihydrophthalazin-6-yl)-1-methyl-1H-pyrazol-5-yl)-2-methyl-2H-indazole-4-carbonitrile]
3.51	> 1	Cn1ncc(-c2ccc3c(=O)[nH]nc(CN)c3c2)c1-c1ccc2c(cnn2C)c1C#N [Example 4-249, 5-(4-(4-(aminomethyl)-1-oxo-1,2-dihydrophthalazin-6-yl)-1-methyl-1H-pyrazol-5-yl)-1-methyl-1H-indazole-4-carbonitrile]
0.757	0.051	Cn1ncc(-c2ccc3c(=O)[nH]nc(CN)c3c2)c1-c1ccc2nscc2c1C#N [Example 4-250, 5-(4-(4-(aminomethyl)-1-oxo-1,2-dihydrophthalazin-6-yl)-1-methyl-1H-pyrazol-5-yl)benzo[c]isothiazole-4-carbonitrile]
0.049	0.008	Cn1ncc(-c2ccc3c(=O)[nH]nc(CN)c3c2)c1-c1c(F)ccc(OC2CC2)c1C#N [Example 4-251, 2-(4-(4-(aminomethyl)-1-oxo-1,2-dihydrophthalazin-6-yl)-1-methyl-1H-pyrazol-5-yl)-6-cyclopropoxy-3-fluorobenzonitrile]
0.087	0.004	Cn1ncc(-c2ccc3c(=O)[nH]nc(CN)c3c2)c1-c1cc(OC(F)(F)F)cc(OC2CC2)c1C#N [Example 4-252, 2-(4-(4-(aminomethyl)-1-oxo-1,2-dihydrophthalazin-6-yl)-1-methyl-1H-pyrazol-5-yl)-6-cyclopropoxy-4-(trifluoromethoxy)benzonitrile]
> 10	> 1	Cn1ncc(-c2ccc3c(=O)[nH]nc([C@H](N)C(F)F)c3c2)c1-c1ccc2ccccc2c1C#N [Example 9-6, 2-[4-[4-[(1S)-1-amino-2,2-difluoro-ethyl]-1-oxo-2H-phthalazin-6-yl]-2-methyl-pyrazol-3-yl]naphthalene-1-carbonitrile]
0.085	0.016	Cn1ncc(-c2cc(C(F)(F)F)c3c(=O)[nH]nc(CN)c3c2)c1-c1ccc2ccccc2c1C#N [Example 10-13, 2-(4-(4-(aminomethyl)-1-oxo-8-(trifluoromethyl)-1,2-dihydrophthalazin-6-yl)-1-methyl-1H-pyrazol-5-yl)-1-naphthonitrile]
0.088	0.075	Cn1ncc(-c2cc(Cl)c3c(=O)[nH]nc(CN)c3c2)c1-c1cccc(OC2CC2)c1C#N [Example 10-14, 2-(4-(4-(aminomethyl)-8-chloro-1-oxo-1,2-dihydrophthalazin-6-yl)-1-methyl-1H-pyrazol-5-yl)-6-cyclopropoxybenzonitrile]
0.013	0.004	Cc1cc(-c2cnn(C)c2-c2c(F)cc3ccccc3c2C#N)cc2c(CN)n[nH]c(=O)c12 [Example 10-15, 2-(4-(4-(aminomethyl)-8-methyl-1-oxo-1,2-dihydrophthalazin-6-yl)-1-methyl-1H-pyrazol-5-yl)-3-fluoro-1-naphthonitrile]
0.021	0.021	Cn1ncc(-c2cc(Cl)c3c(=O)[nH]nc(CN)c3c2)c1-c1c(F)cc2ccccc2c1C#N [Example 10-17, 2-(4-(4-(aminomethyl)-8-chloro-1-oxo-1,2-dihydrophthalazin-6-yl)-1-methyl-1H-pyrazol-5-yl)-3-fluoro-1-naphthonitrile]
0.312	0.185	Cc1cc(OC2CC2)c(C#N)c(-c2c(-c3cc(Cl)c4c(=O)[nH]nc(CN)c4c3)cnn2C)c1 [Example 10-19, 2-(4-(4-(aminomethyl)-8-chloro-1-oxo-1,2-dihydrophthalazin-6-yl)-1-methyl-1H-pyrazol-5-yl)-6-cyclopropoxy-4-methylbenzonitrile]
0.035	0.029	Cc1cc(OC2CC2)c(C#N)c(-c2c(-c3cc(Cl)c4c(=O)[nH]nc(CN)c4c3)cnn2C)c1F [Example 10-20, 2-(4-(4-(aminomethyl)-8-chloro-1-oxo-1,2-dihydrophthalazin-6-yl)-1-methyl-1H-pyrazol-5-yl)-6-cyclopropoxy-3-fluoro-4-methylbenzonitrile]
0.24	0.026	Cc1c(-c2c(-c3ccc4c(=O)[nH]nc(CN)c4c3)cnn2C)ccc2ccccc12 [Example 12-12, 4-(aminomethyl)-6-[1-methyl-5-(1-methyl-2-naphthyl)pyrazol-4-yl]-2H-phthalazin-1-one]
0.261	0.189	Cc1cc2ccccc2c(C#N)c1-c1c(-c2ccc3c(=O)[nH]nc(CN)c3c2)cnn1C [Example 12-15, 2-[4-[4-(aminomethyl)-1-oxo-2H-phthalazin-6-yl]-2-methyl-pyrazol-3-yl]-3-methyl-naphthalene-1-carbonitrile]
